Experimental data taken from patent US6525001B1, “Substituted pyrimidine and pyridine herbicides” (Mid-American Commercialization Corporation, priority 1997, dated 2003).

What was measured:
Experiment in all cases: Test B pre-/postemergence
Format in all cases: in vivo
Design in all cases: key: 0 is no effect; 10 is complete control
[1] = tested on: bedstraw (Galium aparine)
Outline: (§1)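 Seeds were planted and sprayed preemergence, while plants at 2 to 18 cm (1- to 4-leaf stage) were sprayed postemergence at the same time, with test chemical in a non-phytotoxic solvent mixture containing surfactant. After twelve to sixteen days in a greenhouse, injury was rated visually against untreated controls on a 0–10 scale.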

[2] = tested on: broadleaf signalgrass (Brachiaria decumbens)
Outline: as §1

[3] = tested on: cocklebur (Xanthium strumarium)
Outline: as §1

corn (Zea mays) = tested on: corn (Zea mays)
Outline: as §1

[4] = tested on: crabgrass (Digitaria sanguinalis)
Outline: as §1

[5] = tested on: giant foxtail (Setaria faberii)
Outline: as §1

[6] = tested on: momingglory (Ipomoea hederacea)
Outline: as §1

[7] = tested on: pigweed (Amaranthus retroflexus)
Outline: as §1

[8] = tested on: purple nutsedge (Cyperus rotundus)
Outline: as §1

rape (Brassica napus) = tested on: rape (Brassica napus)
Outline: as §1

soybean (Glycine max) = tested on: soybean (Glycine max)
Outline: as §1

[9] = tested on: sugar beet (Beta vulgaris)
Outline: as §1

[10] = tested on: velvetleaf (Abutilon theophrasti)
Outline: as §1

[11] = tested on: wheat (Triticum aestivum)
Outline: as §1

Question: What does the source list for `Cc1cnc(-c2ccc(C(F)(F)F)cc2)nc1C(Cl)c1cccc(C(F)(F)F)c1` (racemic) [Compound 21]?
Answer: Plant response rating, Bedstraw ([1]; Rate 62 g/ha, Postemergence): 5; Bedstraw plant response rating ([1]; Rate 62 g/ha, Preemergence): 0; Plant response rating, Bedstraw ([1]; Rate 125 g/ha, Postemergence): 9; Bedstraw plant response rating ([1]; Rate 125 g/ha, Preemergence): 1; Plant response rating, Bedstraw ([1]; Rate 250 g/ha, Postemergence): 9; Plant response rating, Bedstraw ([1]; Rate 250 g/ha, Preemergence): 8; Plant response rating, B. signalgrass ([2]; Rate 62 g/ha, Postemergence): 3; B. signalgrass plant response rating ([2]; Rate 62 g/ha, Preemergence): 2; Plant response rating, B. signalgrass ([2]; Rate 125 g/ha, Postemergence): 4; B. signalgrass plant response rating ([2]; Rate 125 g/ha, Preemergence): 3; Plant response rating, B. signalgrass ([2]; Rate 250 g/ha, Postemergence): 7; Plant response rating, B. signalgrass ([2]; Rate 250 g/ha, Preemergence): 8; Plant response rating, Cocklebur ([3]; Rate 62 g/ha, Postemergence): 7; Cocklebur plant response rating ([3]; Rate 62 g/ha, Preemergence): 0; Plant response rating, Cocklebur ([3]; Rate 125 g/ha, Postemergence): 8; Cocklebur plant response rating ([3]; Rate 125 g/ha, Preemergence): 0; Plant response rating, Cocklebur ([3]; Rate 250 g/ha, Postemergence): 8; Plant response rating, Cocklebur ([3]; Rate 250 g/ha, Preemergence): 0; Plant response rating, Corn (corn (Zea mays); Rate 62 g/ha, Postemergence): 3; Corn plant response rating (corn (Zea mays); Rate 62 g/ha, Preemergence): 0; Plant response rating, Corn (corn (Zea mays); Rate 125 g/ha, Postemergence): 3; Corn plant response rating (corn (Zea mays); Rate 125 g/ha, Preemergence): 0; Plant response rating, Corn (corn (Zea mays); Rate 250 g/ha, Postemergence): 4; Plant response rating, Corn (corn (Zea mays); Rate 250 g/ha, Preemergence): 1; Plant response rating, Crabgrass ([4]; Rate 62 g/ha, Postemergence): 3; Crabgrass plant response rating ([4]; Rate 62 g/ha, Preemergence): 3; Plant response rating, Crabgrass ([4]; Rate 125 g/ha, Postemergence): 6; Crabgrass plant response rating ([4]; Rate 125 g/ha, Preemergence): 6; Plant response rating, Crabgrass ([4]; Rate 250 g/ha, Postemergence): 8; Plant response rating, Crabgrass ([4]; Rate 250 g/ha, Preemergence): 10; Plant response rating, Giant foxtail ([5]; Rate 62 g/ha, Postemergence): 1; Giant foxtail plant response rating ([5]; Rate 62 g/ha, Preemergence): 5; Plant response rating, Giant foxtail ([5]; Rate 125 g/ha, Postemergence): 8; Giant foxtail plant response rating ([5]; Rate 125 g/ha, Preemergence): 8; Plant response rating, Giant foxtail ([5]; Rate 250 g/ha, Postemergence): 9; Plant response rating, Giant foxtail ([5]; Rate 250 g/ha, Preemergence): 9; Plant response rating, Morningglory ([6]; Rate 62 g/ha, Postemergence): 8; Morningglory plant response rating ([6]; Rate 62 g/ha, Preemergence): 1; Plant response rating, Morningglory ([6]; Rate 125 g/ha, Postemergence): 8; Morningglory plant response rating ([6]; Rate 125 g/ha, Preemergence): 1; Plant response rating, Morningglory ([6]; Rate 250 g/ha, Postemergence): 9; Plant response rating, Morningglory ([6]; Rate 250 g/ha, Preemergence): 6; Plant response rating, Redroot pigweed ([7]; Rate 62 g/ha, Postemergence): 8; Redroot pigweed plant response rating ([7]; Rate 62 g/ha, Preemergence): 7; Plant response rating, Redroot pigweed ([7]; Rate 125 g/ha, Postemergence): 9; Redroot pigweed plant response rating ([7]; Rate 125 g/ha, Preemergence): 8; Plant response rating, Redroot pigweed ([7]; Rate 250 g/ha, Postemergence): 10; Plant response rating, Redroot pigweed ([7]; Rate 250 g/ha, Preemergence): 9; Plant response rating, Nutsedge ([8]; Rate 62 g/ha, Postemergence): 2; Nutsedge plant response rating ([8]; Rate 62 g/ha, Preemergence): 0; Plant response rating, Nutsedge ([8]; Rate 125 g/ha, Postemergence): 2; Nutsedge plant response rating ([8]; Rate 125 g/ha, Preemergence): 0; Plant response rating, Nutsedge ([8]; Rate 250 g/ha, Postemergence): 3; Plant response rating, Nutsedge ([8]; Rate 250 g/ha, Preemergence): 0; Plant response rating, Rape (rape (Brassica napus); Rate 62 g/ha, Postemergence): 9; Rape plant response rating (rape (Brassica napus); Rate 62 g/ha, Preemergence): 2; Plant response rating, Rape (rape (Brassica napus); Rate 125 g/ha, Postemergence): 10; Rape plant response rating (rape (Brassica napus); Rate 125 g/ha, Preemergence): 3; Plant response rating, Rape (rape (Brassica napus); Rate 250 g/ha, Postemergence): 10; Plant response rating, Rape (rape (Brassica napus); Rate 250 g/ha, Preemergence): 5; Plant response rating, Soybean (soybean (Glycine max); Rate 62 g/ha, Postemergence): 6; Soybean plant response rating (soybean (Glycine max); Rate 62 g/ha, Preemergence): 0; Plant response rating, Soybean (soybean (Glycine max); Rate 125 g/ha, Postemergence): 6; Soybean plant response rating (soybean (Glycine max); Rate 125 g/ha, Preemergence): 0; Plant response rating, Soybean (soybean (Glycine max); Rate 250 g/ha, Postemergence): 6; Plant response rating, Soybean (soybean (Glycine max); Rate 250 g/ha, Preemergence): 0; Plant response rating, Sugarbeets ([9]; Rate 62 g/ha, Postemergence): 9; Sugarbeets plant response rating ([9]; Rate 62 g/ha, Preemergence): 7; Plant response rating, Sugarbeets ([9]; Rate 125 g/ha, Postemergence): 9; Sugarbeets plant response rating ([9]; Rate 125 g/ha, Preemergence): 8; Plant response rating, Sugarbeets ([9]; Rate 250 g/ha, Postemergence): 10; Plant response rating, Sugarbeets ([9]; Rate 250 g/ha, Preemergence): 10; Plant response rating, Velvetleaf ([10]; Rate 62 g/ha, Postemergence): 7; Velvetleaf plant response rating ([10]; Rate 62 g/ha, Preemergence): 4; Plant response rating, Velvetleaf ([10]; Rate 125 g/ha, Postemergence): 8; Velvetleaf plant response rating ([10]; Rate 125 g/ha, Preemergence): 8; Plant response rating, Velvetleaf ([10]; Rate 250 g/ha, Postemergence): 9; Plant response rating, Velvetleaf ([10]; Rate 250 g/ha, Preemergence): 10; Plant response rating, Wheat ([11]; Rate 62 g/ha, Postemergence): 4; Wheat plant response rating ([11]; Rate 62 g/ha, Preemergence): 0; Plant response rating, Wheat ([11]; Rate 125 g/ha, Postemergence): 4; Wheat plant response rating ([11]; Rate 125 g/ha, Preemergence): 0; Plant response rating, Wheat ([11]; Rate 250 g/ha, Postemergence): 5; Plant response rating, Wheat ([11]; Rate 250 g/ha, Preemergence): 2
